Reference: patent US12522595B2, “Bicyclic ether O-glycoprotein-2-acetamido-2-deoxy-3-D-glucopyranosidase inhibitors” (BIOGEN MA INC., priority 2019, dated 2026)

Biological target: T1, Recombinant full length human OGA enzyme (Homo sapiens, UniProt O60502)
T1 construct: Recombinant full length human OGA enzyme was purchased from Origene; purchased Origene
T1 sequence (O60502 1-916): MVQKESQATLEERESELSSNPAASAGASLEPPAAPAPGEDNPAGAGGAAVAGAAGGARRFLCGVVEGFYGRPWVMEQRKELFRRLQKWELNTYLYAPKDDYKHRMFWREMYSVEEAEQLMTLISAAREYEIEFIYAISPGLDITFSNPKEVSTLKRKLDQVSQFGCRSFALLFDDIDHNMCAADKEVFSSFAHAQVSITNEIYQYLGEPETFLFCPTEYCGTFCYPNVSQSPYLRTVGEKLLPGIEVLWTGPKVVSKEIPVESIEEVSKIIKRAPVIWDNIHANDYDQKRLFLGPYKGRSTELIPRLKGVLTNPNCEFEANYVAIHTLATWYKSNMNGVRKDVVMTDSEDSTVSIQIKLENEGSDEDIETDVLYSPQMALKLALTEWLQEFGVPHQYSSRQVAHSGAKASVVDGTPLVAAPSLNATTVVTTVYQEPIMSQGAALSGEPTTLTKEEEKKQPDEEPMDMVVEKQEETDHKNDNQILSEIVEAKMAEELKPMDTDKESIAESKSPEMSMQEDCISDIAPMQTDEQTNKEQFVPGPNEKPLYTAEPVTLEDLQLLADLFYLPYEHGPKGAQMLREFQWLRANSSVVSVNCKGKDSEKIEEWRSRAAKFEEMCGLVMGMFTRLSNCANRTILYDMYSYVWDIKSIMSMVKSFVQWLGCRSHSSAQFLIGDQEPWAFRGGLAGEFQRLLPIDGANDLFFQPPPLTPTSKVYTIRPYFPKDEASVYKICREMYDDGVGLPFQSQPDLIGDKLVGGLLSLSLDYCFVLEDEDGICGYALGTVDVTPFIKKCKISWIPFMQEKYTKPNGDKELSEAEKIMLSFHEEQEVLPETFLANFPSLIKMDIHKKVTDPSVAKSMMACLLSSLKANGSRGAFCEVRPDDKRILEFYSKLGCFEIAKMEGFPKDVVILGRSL
Experiment: OGA enzyme inhibition biochemical assay
Settings: 1 nM OGA, 100 μM 4-MUGlcNAc (Km), pH 6.4, 90 minutes at room temperature, 10-point dose-response from 20 μM
Description: N-(5-(((2S,4R)-4-([1,2,4]triazolo[4,3-a]pyrazin-3-yloxy)-2-methylpyrrolidin-1-yl)methyl)-4-fluorothiazol-2-yl)acetamide: The title compound was prepared in an analogous manner as Example 172 from 3-bromo-[1,2,4]triazolo[4,3-a]pyrazine. LCMS (ESI): [M+H] 392. ^1H NMR (600 MHz, CHLOROFORM-d) δ 10.75 (br s, 1H), 9.04 (s, 1H), 9.03 (s, 1H), 7.24 (s, 1H), 4.99-5.06 (m, 1H), 4.01 (d, J=14.49 Hz, 1H), 3.64 (d, J=14.67 Hz, 1H), 3.40 (d, J=11.55 Hz, 1H), 2.75 (dd, J=5.78, 11.46 Hz, 1H), 2.61-2.72 (m, 2H), 2.32 (s, 4H), 1.84-1.92 (m, 1H), 1.30 (d, J=5.87 Hz, 4H). ^19F NMR (565 MHz, CHLOROFORM-d) 6-115.92 (br s, 1F). OGA Enzyme Inhibition Biochemical Assay
Recombinant full length human OGA enzyme was purchased from Origene. 4-MUGlCNAc substrate was purchased from Sigma. All other reagents were purchased from Sigma or Fisher. Assay buffer consists of the McIlvaine buffer system, pH 6.4 (0.2M Na2HPO4 mixed with 0.1M citric acid) and 0.01% BSA. Reactions consist of 1 nM OGA, 100 μM 4-MUGlcNAc (Km), and compound in a final volume of 10 μl. Reactions were incubated for 90 minutes at room temperature and quenched with 40 μl of 3M glycine, pH 10 and read on a Perkin Elmer Envision plate reader (Ex: 355 nm/Em: 460 nm). Compounds were tested with a 10-point dose-response starting from 20 μM with a 4-fold dilution. Data, as presented in Table 1 below, was fit using GraphPad Prism using a 4-parameter fit with variable slope.

| Compound | IC50 [nM] |
| --- | --- |
| CC(=O)Nc1ncc(CN2C[C@H](Oc3ccc4cn(C)nc4c3)C[C@@H]2C)s1 [Example 52, N-(5-(((2S,4R)-2-methyl-4-((2-methyl-2H-indazol-6-yl)oxy)pyrrolidin-1-yl)methyl)thiazol-2-yl)acetamide] | < 1 |
| CC(=O)Nc1ncc(CN2C[C@H](Oc3ncnc4occc34)C[C@@H]2C)s1 [Example 73, N-(5-(((2S,4R)-4-(furo[2,3-d]pyrimidin-4-yloxy)-2-methylpyrrolidin-1-yl)methyl)thiazol-2-yl)acetamide] | < 1 |
| CC(=O)Nc1nc(F)c(CN2C[C@H](Oc3ncnc4ccoc34)C[C@@H]2C)s1 [Example 94, N-(4-fluoro-5-(((2S,4R)-4-(furo[3,2-d]pyrimidin-4-yloxy)-2-methylpyrrolidin-1-yl)methyl)thiazol-2-yl)acetamide] | < 1 |
| CC(=O)Nc1nc(F)c(CN2C[C@H](Oc3cccc4nccn34)C[C@@H]2C)s1 [Example 64, N-(4-fluoro-5-(((2S,4R)-4-(imidazo[1,2-a]pyridin-5-yloxy)-2-methylpyrrolidin-1-yl)methyl)thiazol-2-yl)acetamide] | < 1 |
| CC(=O)Nc1nc(F)c(CN2C[C@H](Oc3ccn4nc(C)cc4n3)C[C@@H]2C)s1 [Example 112, N-(4-fluoro-5-(((2S,4R)-2-methyl-4-((2-methylpyrazolo[1,5-a]pyrimidin-5-yl)oxy)pyrrolidin-1-yl)methyl)thiazol-2-yl)acetamide] | < 1 |
| CC(=O)Nc1nc(F)c(CN2C[C@H](Oc3ncnc4ccc(F)cc34)C[C@@H]2C)s1 [Example 123, N-(4-fluoro-5-(((2S,4R)-4-((6-fluoroquinazolin-4-yl)oxy)-2-methylpyrrolidin-1-yl)methyl)thiazol-2-yl)acetamide] | 4.1 |
| CC(=O)Nc1nc(F)c(CN2C[C@H](Oc3cncc4nccn34)C[C@@H]2C)s1 [Example 100, N-(4-fluoro-5-(((2S,4R)-4-(imidazo[1,2-a]pyrazin-5-yloxy)-2-methylpyrrolidin-1-yl)methyl)thiazol-2-yl)acetamide] | < 1 |
| CC(=O)Nc1nc(F)c(CN2C[C@H](Oc3noc4cc(F)ccc34)C[C@@H]2C)s1 [Example 126, N-(4-fluoro-5-(((2S,4R)-4-((6-fluorobenzo[d]isoxazol-3-yl)oxy)-2-methylpyrrolidin-1-yl)methyl)thiazol-2-yl)acetamide] | 3.1 |
| CC(=O)Nc1ncc(CN2C[C@H](Oc3ccc4ccnn4c3)C[C@@H]2C)s1 [Example 155, N-(5-(((2S,4R)-2-methyl-4-(pyrazolo[1,5-a]pyridin-6-yloxy)pyrrolidin-1-yl)methyl)thiazol-2-yl)acetamide] | < 1 |
| CC(=O)Nc1nc(F)c(CN2C[C@H](Oc3ccc4ncnn4c3C)C[C@@H]2C)s1 [Example 105, N-(4-fluoro-5-(((2S,4R)-2-methyl-4-((5-methyl-[1,2,4]triazolo[1,5-a]pyridin-6-yl)oxy)pyrrolidin-1-yl)methyl)thiazol-2-yl)acetamide] | < 1 |
| CC(=O)Nc1nc(F)c(CN2C[C@H](Oc3nn4ccnc4s3)C[C@@H]2C)s1 [Example 111, N-(4-fluoro-5-(((2S,4R)-4-(imidazo[2,1-b][1,3,4]thiadiazol-2-yloxy)-2-methylpyrrolidin-1-yl)methyl)thiazol-2-yl)acetamide] | < 1 |
| CC(=O)Nc1nc(F)c(CN2C[C@H](Oc3ccnc4ccoc34)C[C@@H]2C)s1 [Example 47, N-(4-fluoro-5-(((2S,4R)-4-(furo[3,2-b]pyridin-7-yloxy)-2-methylpyrrolidin-1-yl)methyl)thiazol-2-yl)acetamide] | < 1 |
| CC(=O)Nc1ncc(CN2C[C@H](Oc3nc4cccnc4n3C)C[C@@H]2C)s1 [Example 91, N-(5-(((2S,4R)-2-methyl-4-((3-methyl-3H-imidazo[4,5-b]pyridin-2-yl)oxy)pyrrolidin-1-yl)methyl)thiazol-2-yl)acetamide] | 5 |
| CC(=O)Nc1ncc(CN2C[C@H](Oc3ncc4c(C)csc4n3)C[C@@H]2C)s1 [Example 3, N-(5-(((2S,4R)-2-methyl-4-((5-methylthieno[2,3-d]pyrimidin-2-yl)oxy)pyrrolidin-1-yl)methyl)thiazol-2-yl)acetamide] | < 1 |
| COc1ccc2ccc(O[C@@H]3C[C@H](C)N(Cc4sc(NC(C)=O)nc4F)C3)nc2n1 [Example 167, N-(4-fluoro-5-(((2S,4R)-4-((7-methoxy-1,8-naphthyridin-2-yl)oxy)-2-methylpyrrolidin-1-yl)methyl)thiazol-2-yl)acetamide] | < 1 |
| COc1cc2ccnc(Cl)c2cc1O[C@@H]1C[C@H](C)N(Cc2sc(NC(C)=O)nc2F)C1 [Example 132, N-(5-(((2S,4R)-4-((1-chloro-6-methoxyisoquinolin-7-yl)oxy)-2-methylpyrrolidin-1-yl)methyl)-4-fluorothiazol-2-yl)acetamide] | < 1 |
| CC(=O)Nc1ncc(CN2C[C@H](Oc3ccnc4ccoc34)C[C@@H]2C)s1 [Example 48, N-(5-(((2S,4R)-4-(furo[3,2-b]pyridin-7-yloxy)-2-methylpyrrolidin-1-yl)methyl)thiazol-2-yl)acetamide] | < 1 |
| CC(=O)Nc1nc(F)c(CN2C[C@H](Oc3ccnc4c3cnn4C)C[C@@H]2C)s1 [Example 139, N-(4-fluoro-5-(((2S,4R)-2-methyl-4-((1-methyl-1H-pyrazolo[3,4-b]pyridin-4-yl)oxy)pyrrolidin-1-yl)methyl)thiazol-2-yl)acetamide] | < 1 |
| CC(=O)Nc1ncc(CN2C[C@H](Oc3ccc4cccnc4n3)C[C@@H]2C)s1 [Example 81, N-(5-(((2S,4R)-4-((1,8-naphthyridin-2-yl)oxy)-2-methylpyrrolidin-1-yl)methyl)thiazol-2-yl)acetamide] | < 1 |
| CC(=O)Nc1ncc(CN2C[C@H](Oc3ncnc4occc34)C[C@@H]2C)s1 [Example 46, N-(5-(((2S,4R)-4-(furo[2,3-d]pyrimidin-4-yloxy)-2-methylpyrrolidin-1-yl)methyl)thiazol-2-yl)acetamide] | 1.1 |
| CC(=O)Nc1ncc(CN2C[C@H](Oc3ncnc4sc(C(F)F)nc34)C[C@@H]2C)s1 [Example 36] | 780 |
| CC(=O)Nc1ncc(CN2C[C@H](Oc3cc4c(Cl)ccnc4cc3F)C[C@@H]2C)s1 [Example 7, N-(5-(((2S,4R)-4-((4-chloro-7-fluoroquinolin-6-yl)oxy)-2-methylpyrrolidin-1-yl)methyl)thiazol-2-yl)acetamide] | < 1 |
| CC(=O)Nc1nc(F)c(CN2C[C@H](Oc3cc4cnn(C)c4cn3)C[C@@H]2C)s1 [Example 90, N-(4-fluoro-5-(((2S,4R)-2-methyl-4-((1-methyl-1H-pyrazolo[3,4-c]pyridin-5-yl)oxy)pyrrolidin-1-yl)methyl)thiazol-2-yl)acetamide] | < 1 |
| CC(=O)Nc1nc(F)c(CN2C[C@H](Oc3cccc4ncnn34)C[C@@H]2C)s1 [Example 102, N-(5-(((2S,4R)-4-([1,2,4]triazolo[1,5-a]pyridin-5-yloxy)-2-methylpyrrolidin-1-yl)methyl)-4-fluorothiazol-2-yl)acetamide] | < 1 |
| CC(=O)Nc1nc(F)c(CN2C[C@H](Oc3ccc4ccccc4n3)C[C@@H]2C)s1 [Example 78, N-(4-fluoro-5-(((2S,4R)-2-methyl-4-(quinolin-2-yloxy)pyrrolidin-1-yl)methyl)thiazol-2-yl)acetamide] | < 1 |
